Values of other authors, collected in patent publication US8663696B2, “Film delivery system for tetrahydrolipstatin” (MonoSol Rx, LLC, priority 2007, dated 2014).

Key:
[1] = tested on: lipase; conditions: background statement on the drug
[2] = natural crystalline state

In the case of `CCCCCCCCCCC[C@@H](C[C@@H]1OC(=O)[C@H]1CCCCCC)OC(=O)[C@H](CC(C)C)NC=O` [Tetrahydrolipstatin, (2S,3S,5S)-5-[(S)-2-formamido-4-methyl-valeranyloxy]-2-hexyl-3-hexadecanoic acid lactone], the “absorption of dietary fat blocked” value [1] is listed as “approximately 30%” and the water solubility [2] is listed as “very water-insoluble”.
